Source: patent publication US4459290A, “C-23-Modified derivatives of OMT, pharmaceutical compositions and method of use” (priority 1982, dated 1984)
Values after ≈ are worked out from the molar mass of the structure shown. Like-named read-outs stand apart in the source and are kept apart here.

Assays:
Assay type in all cases: cell-based
[1] = system: Pasteurella hemolytica 23C; experiment: MIC, broth-dilution microtiter test (Table VII); details: Pasteurella, P. hemolytica 23C, read-out: MIC
How it was run: (§1)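 Growth inhibition in liquid medium, in a routine microtiter broth-dilution series, gave the MIC against staphylococci and pasteurellae; the gram-negative enteric strain was tested by conventional agar dilution instead.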

[2] = system: Pasteurella hemolytica 22C; experiment: MIC, broth-dilution microtiter test (Table VII); details: Pasteurella, P. hemolytica 22C, read-out: MIC
How it was run: as §1

[3] = system: Streptococcus sp. 80; experiment: MIC, broth-dilution microtiter test (Table VII)
Description: (§2) Especially noteworthy is the improved activity against gram-negative bacteria for several derivatives when compared to the activity of OMT. […] The MIC's in Tables V and VI were determined by standard agar-dilution assays. The MIC's in Table VII were obtained using a conventional broth-dilution microtiter test.

[4] = system: Mycoplasma synoviae; experiment: MIC, broth-dilution microtiter test (Table VII); details: Mycoplasmopsis synoviae; M. synoviae; broth-dilution microtiter; read-out: MIC
Description: as §2

[5] = system: Pasteurella multocida 17E; experiment: MIC, broth-dilution microtiter test (Table VII); details: Pasteurella multocida; P. multocida 17E, bovine isolate; broth-dilution microtiter; read-out: MIC
How it was run: (§3)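 Broth microdilution, run as a conventional microtiter test, supplied MICs for the gram-positive S. aureus and the Pasteurella isolates. Enterobacter data instead rest on a standard agar-dilution procedure.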

[6] = system: Pasteurella multocida 22A; experiment: MIC, broth-dilution microtiter test (Table VII); details: Pasteurella multocida; P. multocida 22A; broth-dilution microtiter; read-out: MIC
How it was run: as §3

[7] = system: Pasteurella multocida 68C; experiment: MIC, broth-dilution microtiter test (Table VII); details: Pasteurella multocida; P. multocida 68C; broth-dilution microtiter; read-out: MIC
How it was run: as §3

[8] = system: Pasteurella multocida 60A; experiment: MIC, broth-dilution microtiter test (Table VII); details: Pasteurella multocida; P. multocida 60A, avian isolate; broth-dilution microtiter; read-out: MIC
How it was run: as §3

[9] = system: Staphylococcus aureus; experiment: MIC, broth-dilution microtiter test (Table VII); details: Staphylococcus aureus
How it was run: as §3

[10] = system: Pasteurella hemolytica 41D; experiment: MIC, broth-dilution microtiter test (Table VII); details: Pasteurella, P. hemolytica 41D, read-out: MIC
How it was run: as §1

[11] = system: Streptococcus pneumoniae Park I; experiment: microbe, parasite or virus in culture; details: Streptococcus pneumoniae; read-out: MIC
Description: as §2

[12] = system: Pseudomonas aeruginosa X528; experiment: MIC, standard agar-dilution assay (Table VI)
Description: as §2

[13] = system: Salmonella typhi 1335; experiment: MIC, standard agar-dilution assay (Table VI); details: Salmonella enterica
Description: as §2

[14] = system: Serratia marcescens SE3; experiment: MIC, standard agar-dilution assay (Table VI)
Description: as §2

[15] = system: Pseudomonas aeruginosa Ps18; experiment: MIC, standard agar-dilution assay (Table VI)
Description: as §2

[16] = system: Pseudomonas aeruginosa X239; experiment: MIC, standard agar-dilution assay (Table VI); details: X239
Description: as §2

[17] = system: Serratia marcescens X99; experiment: MIC, standard agar-dilution assay (Table VI); details: X99
Description: as §2

[18] = system: Enterobacter aerogenes C32; experiment: MIC, standard agar-dilution assay (Table VI); details: Klebsiella aerogenes, C32
Description: as §2

[19] = system: Klebsiella pneumoniae X68; experiment: MIC, standard agar-dilution assay (Table VI); details: X68
Description: as §2

[20] = system: Proteus rettgeri C24; experiment: MIC, standard agar-dilution assay (Table VI); details: Providencia rettgeri, P. rettgeri C24
Description: as §2

[21] = system: Proteus morganii PR15; experiment: MIC, standard agar-dilution assay (Table VI); details: Morganella morganii, PR15
Description: as §2

[22] = system: Enterobacter aerogenes EB17; experiment: MIC, standard agar-dilution assay (Table VI); details: Klebsiella aerogenes, EB17
Description: as §2

[23] = system: Proteus inconstans PR33; experiment: MIC, standard agar-dilution assay (Table VI); details: Providencia alcalifaciens
Description: as §2

[24] = system: Proteus rettgeri PR7; experiment: MIC, standard agar-dilution assay (Table VI); details: Providencia rettgeri; P. rettgeri PR7; agar dilution; read-out: MIC
Description: as §2

[25] = system: Salmonella heidelberg X514; experiment: MIC, standard agar-dilution assay (Table VI); details: Salmonella enterica, X514
Description: as §2

[26] = system: Citrobacter freundii CF17; experiment: MIC, standard agar-dilution assay (Table VI)
Description: as §2

[27] = system: Enterobacter cloacae EB5; experiment: MIC, standard agar-dilution assay (Table VI)
Description: as §2

[28] = system: Staphylococcus aureus X400; experiment: MIC, standard agar-dilution assay (Table V); details: Staphylococcus aureus, X400
Description: as §2

[29] = system: Escherichia coli N10; experiment: MIC, standard agar-dilution assay (Table V); details: Escherichia coli
How it was run: as §1

[30] = system: Staphylococcus aureus V41; experiment: MIC, standard agar-dilution assay (Table V); details: Staphylococcus aureus, V41
Description: as §2

[31] = system: Staphylococcus epidermidis EPI1; experiment: MIC, standard agar-dilution assay (Table V); details: Staphylococcus epidermidis; S. epidermidis EPI1; agar dilution; read-out: MIC
Description: as §2

[32] = system: Staphylococcus epidermidis EPI2; experiment: MIC, standard agar-dilution assay (Table V); details: Staphylococcus epidermidis
Description: as §2

[33] = system: Klebsiella pneumoniae KAE; experiment: MIC, standard agar-dilution assay (Table V); details: Klebsiella pneumoniae
How it was run: as §1

[34] = system: Escherichia coli EC14; experiment: MIC, standard agar-dilution assay (Table V); details: Escherichia coli
How it was run: as §1

[35] = system: Streptococcus Group 9960; experiment: MIC, standard agar-dilution assay (Table V); details: GROUP9960; Streptococcus Group 9960; agar dilution; read-out: MIC
Description: as §2

[36] = system: Staphylococcus aureus X1.1; experiment: MIC, standard agar-dilution assay (Table V); details: Staphylococcus aureus
Description: as §2

[37] = system: Shigella sonnei N9; experiment: MIC, standard agar-dilution assay (Table V)
How it was run: as §1

[38] = system: Staphylococcus aureus S13E; experiment: MIC, standard agar-dilution assay (Table V); details: Staphylococcus aureus, S13E
Description: as §2

[39] = system: Streptococcus Group D X66; experiment: MIC, standard agar-dilution assay (Table V)
Description: as §2

[40] = system: Klebsiella pneumoniae X26; experiment: MIC, standard agar-dilution assay (Table V); details: Klebsiella pneumoniae
Description: as §2

SMILES | MIC [1] [µg/mL] | MIC [2] [µg/mL] | MIC [4] [µg/mL] | MIC [5] [µg/mL] | MIC [6] [µg/mL] | MIC [7] [µg/mL] | MIC [8] [µg/mL] | MIC [10] [µg/mL] | MIC [11] [µg/mL] | MIC [13] [µg/mL] | MIC [16] [µg/mL] | MIC [17] [µg/mL] | MIC [18] [µg/mL] | MIC [19] [µg/mL] | MIC [20] [µg/mL] | MIC [21] [µg/mL] | MIC [22] [µg/mL] | MIC [24] [µg/mL] | MIC [25] [µg/mL] | MIC [28] [µg/mL] | other results
CCC1OC(=O)CC(O)C(C)C(OC2OC(C)C(O)C(N(C)C)C2O)C(CC=O)CC(C)C(=O)C=CC(C)=CC1CN=[N+]=[N-] (centres unmarked) [Compound 8, 23-Deoxy-23-azido-OMT] | 6.25 (≈ 10 µM) | 6.25 (≈ 10 µM) | 0.39 (≈ 0.626 µM) | 1.56 (≈ 2.5 µM) | 1.56 (≈ 2.5 µM) | 1.56 (≈ 2.5 µM) | 3.12 (≈ 5.01 µM) | 6.25 (≈ 10 µM) | 0.06 (≈ 0.0963 µM) | 64 (≈ 103 µM) | 64 (≈ 103 µM) | 64 (≈ 103 µM) | 64 (≈ 103 µM) | 64 (≈ 103 µM) | 32 (≈ 51.4 µM) | 64 (≈ 103 µM) | 64 (≈ 103 µM) | 32 (≈ 51.4 µM) | 64 (≈ 103 µM) | 0.25 (≈ 0.401 µM) | MIC ([3]; Streptococcus sp. 80, broth-dilution microtiter, read-out: MIC): ≤ 0.78 µg/mL; MIC ([9]; S. aureus, broth-dilution microtiter, read-out: MIC): ≤ 0.78 µg/mL; MIC ([12]; P. aeruginosa X528, agar dilution, read-out: MIC): 16 µg/mL (≈ 25.7 µM); MIC ([14]; S. marcescens SE3, agar dilution, read-out: MIC): > 128 µg/mL; MIC ([15]; P. aeruginosa Ps18, agar dilution, read-out: MIC): 32 µg/mL (≈ 51.4 µM); MIC ([23]; P. inconstans PR33, agar dilution, read-out: MIC): > 128 µg/mL; MIC ([26]; C. freundii CF17, agar dilution, read-out: MIC): > 128 µg/mL; MIC ([27]; E. cloacae EB5, agar dilution, read-out: MIC): > 128 µg/mL; MIC ([29]; E. coli N10, agar dilution, read-out: MIC): 32 µg/mL (≈ 51.4 µM); MIC [30]: 0.25 µg/mL (≈ 0.401 µM); MIC [31]: 0.125 µg/mL (≈ 0.201 µM); MIC ([32]; EPI2): 0.25 µg/mL (≈ 0.401 µM); MIC ([33]; K. pneumoniae KAE, agar dilution, read-out: MIC): > 128 µg/mL; MIC ([34]; E. coli EC14, agar dilution, read-out: MIC): 32 µg/mL (≈ 51.4 µM); MIC [35]: 0.5 µg/mL (≈ 0.803 µM); MIC ([36]; S. aureus X1.1, agar dilution, read-out: MIC): 0.125 µg/mL (≈ 0.201 µM); MIC [37]: 32 µg/mL (≈ 51.4 µM); MIC [38]: 0.25 µg/mL (≈ 0.401 µM); MIC [39]: 0.25 µg/mL (≈ 0.401 µM); MIC ([40]; K. pneumoniae X26, agar dilution, read-out: MIC): 4 µg/mL (≈ 6.42 µM)
CCC1OC(=O)CC(O)C(C)C(OC2OC(C)C(O)C(N(C)C)C2O)C(CC=O)CC(C)C(=O)C=CC(C)=CC1CSc1nnnn1C (centres unmarked) [Compound 5, 23-Deoxy-23-(1-methyltetrazol-5-yl)thio-OMT] | 12.5 (≈ 18 µM) | 12.5 (≈ 18 µM) | 0.78 (≈ 1.12 µM) | 6.25 (≈ 8.98 µM) | 6.25 (≈ 8.98 µM) | 6.25 (≈ 8.98 µM) | 6.25 (≈ 8.98 µM) | 12.5 (≈ 18 µM) | 0.06 (≈ 0.0862 µM) | > 128 | > 128 | > 128 | > 128 | > 128 | 64 (≈ 92 µM) | > 128 | > 128 | 64 (≈ 92 µM) | > 128 | 0.5 (≈ 0.719 µM) | MIC ([3]; Streptococcus, SP.80): 1.56 µg/mL (≈ 2.24 µM); MIC [9]: 1.56 µg/mL (≈ 2.24 µM); MIC ([12]; X528): 64 µg/mL (≈ 92 µM); MIC ([14]; SE3): > 128 µg/mL; MIC ([15]; PS18): > 128 µg/mL; MIC ([23]; PR33): > 128 µg/mL; MIC ([26]; CF17): > 128 µg/mL; MIC ([27]; EB5): > 128 µg/mL; MIC ([29]; N10): > 128 µg/mL; MIC [30]: 0.5 µg/mL (≈ 0.719 µM); MIC [31]: 0.25 µg/mL (≈ 0.359 µM); MIC ([32]; S. epidermidis EPI2, agar dilution, read-out: MIC): 0.5 µg/mL (≈ 0.719 µM); MIC [33]: > 128 µg/mL; MIC ([34]; EC14): 64 µg/mL (≈ 92 µM); MIC [35]: 0.5 µg/mL (≈ 0.719 µM); MIC ([36]; X1.1): 0.5 µg/mL (≈ 0.719 µM); MIC [37]: 64 µg/mL (≈ 92 µM); MIC [38]: 0.5 µg/mL (≈ 0.719 µM); MIC ([39]; Streptococcus Group D X66, agar dilution, read-out: MIC): 0.5 µg/mL (≈ 0.719 µM); MIC ([40]; X26): 4 µg/mL (≈ 5.75 µM)
